How the values were obtained:
[1] = test system: CA3-CA1 synapses in acute hippocampal slices; assay: PTP and LTP of fEPSPs induced by 200-Hz tetanization in hippocampal slices; format: cell-based, mouse; conditions: CPA or thapsigargin (4 μm); for fEPSP5 (PTP, 5 minutes after tetanization) as % of that in vehicle-treated Df(16)1/+ slices / fEPSP360 (LTP, 6 hours post-tetanus) as % of that in vehicle-treated Df(16)1/+ slices: slices from mature Df(16)1/+ mice
[2] = test system: CA3-CA1 synapses in acute hippocampal slices; assay: Paired-pulse facilitation (PPF) of fEPSPs, field potential recordings in hippocampal slices; format: cell-based, mouse
[3] = WT mice, 200-Hz induction protocol

| SMILES | fEPSP5 (PTP, 5 minutes after tetanization) as % of that in vehicle-treated Df(16)1/+ slices ([1]; 200-Hz tetanization) [%] | fEPSP360 (LTP, 6 hours post-tetanus) as % of that in vehicle-treated Df(16)1/+ slices ([1]; 200-Hz tetanization) [%] | PPF ([2]; Df(16)1/+ mice, 20-ms interval, CPA added to the bath solution) | PPF ([2]; Df(16)1/+ mice, 50-ms interval, CPA added to the bath solution) | PPF ([2]; WT mice, 20-ms interval, in the presence of CPA) | PPF ([2]; WT mice, 50-ms interval, in the presence of CPA) | effect on enhancement of PTP and LTP ([1]; Df(16)1/+ mice, 200-Hz tetanization) | WT fEPSP5 in the presence vs absence of inhibitor [1, 3] | WT fEPSP360 in the presence vs absence of inhibitor [1, 3] |
| --- | --- | --- | --- | --- | --- | --- | --- | --- | --- |
| CC(=O)C1=C(O)[C@@H]2[C@H]3c4c[nH]c5cccc(c45)C[C@H]3C(C)(C)N2C1=O [CPA, cyclopiazonic acid] | 45 | 60 | 1.78±0.13 | 1.76±0.09 | 1.64±0.11 | 1.61±0.05 | – | – | – |
| C/C=C(/C)C(=O)O[C@H]1C(C)=C2[C@H]([C@@H]1OC(=O)CCCCCCC)[C@@](C)(OC(C)=O)C[C@H](OC(=O)CCC)[C@@]1(O)[C@H]2OC(=O)[C@@]1(C)O [thapsigargin] | 69 | 57 | – | – | – | – | rescued the enhancement of PTP and LTP | no significant difference | no significant difference |

Source: US8895511B2, “Use of sarcoplasmic CA2+-ATPase type 2 protein for diagnosing and treating learning or mental disorders” (priority 2009, dated 2014)
